Laboratory results as given in patent US20100192451A1, “MOSQUITO ATTRACTANT COMPOSITIONS AND METHODS” (priority 2008, published 2010).

How the values were obtained:
[1] = test system: gravid Ae. aegypti; assay: Egg-laying (contact-mediated) binary choice bioassay; assay type: in vivo, Aedes aegypti; details: for induction of egg laying by synthetic compounds: 1, 10 and 100 ng in 30 mL water
Protocol: Modifications of the olfactory- and contact-mediated bioassays previously described (Trexler J D, Apperson C S, Schal C (1998) J Med Entomol 35:967-976) were used to measure the response of gravid mosquitoes to plant infusions (or bacterial compounds). Briefly, two 125-mL polypropylene cups (test and control) were placed randomly in diagonal corners of a Plexiglas cage (30×30×30 cm) that was fitted with a stockinet cloth sleeve (AlbaHealth, Rockwood, Tenn.). Each cup was filled with 30 mL of either test or control solution. White paper sleeves were placed around each bioassay cup to mask visual cues presented by darkly colored leaf infusions. Adults had ad libitum access to water contained in a polypropylene cup that was fitted with a lid with a cotton wick protruding through a hole in the lid. For egg-laying bioassays, either one or five gravid females were released in each replicate cage. Cages were placed randomly on racks in a room where environmental conditions were the same as in the insectary. After a 24 h exposure period, eggs laid on the surface of the water in the test and control cups were counted. In olfactory bioassays, 10 gravid females were released in each bioassay cage. A circular metal wire-mesh screen covered with insect glue (Tanglefoot; Tanglefoot Co.) was inserted in each cup on top of an insert cut from a 120-mL polypropylene cup. Sticky screens were placed above test and control media, 2.5 cm below the lip of each cup. The mesh size of the metal screen prevented females from entering without landing on the screen. Therefore, positive or negative responses to the test infusions were measured by the numbers of females trapped during a 24 h exposure period on the sticky screen in the test and control cups.
For each replicate bioassay cage, the numbers of eggs laid in the test and control cups were converted to the proportion of the total number of eggs laid. The proportions were subjected to an arcsin√x transformation to achieve approximate normality. A one-tailed paired t test was used to determine whether differences in the mean transformed proportion of eggs deposited in test and control cups were statistically significant.
Synthetic compounds were bioassayed by placing hexane solutions on the surface of sterile distilled water; water in control cups was treated with hexane alone. The hexane was evaporated in a fume hood before bioassays commenced. Each bioassay was with a single female and lasted 72 h.

[2] = test system: gravid Ae. aegypti; assay: as above; assay type: in vivo, Aedes aegypti; details: for Eggs per assay: five females per assay, 24-h
[3] = dose 1 ng in 30 mL water, single female, 72 h
[4] = dose 10 ng in 30 mL water, single female, 72 h
[5] = dose 10 ng, single female, 72 h
[6] = dose 100 ng in 30 mL water, single female, 72 h
[7] = dose 100 ng, single female, 72 h
[8] = dose 0.01 mg, single female, 72 h
[9] = dose 0.1 mg, single female, 72 h
[10] = dose 1.0 mg, single female, 72 h
[11] = 1 ng, five females, 24 h assays
[12] = dose 0.01 ng, five females per assay, 24-h
[13] = dose 0.1 ng, five females per assay, 24-h
[14] = dose 1.0 ng, five females per assay, 24-h

| SMILES | Treatment, % (eggs in treatment cup) [1, 3] [%] | Eggs per assay ([1]; dose 1 ng, single female, 72 h) | Treatment, % (eggs in treatment cup) [1, 4] [%] | Eggs per assay [1, 5] | Treatment, % (eggs in treatment cup) [1, 6] [%] | Eggs per assay [1, 7] | induction of egg laying by synthetic compounds ([1]; single female, 72 h) | other results |
| --- | --- | --- | --- | --- | --- | --- | --- | --- |
| CCCCCCCCCC(=O)O [Decanoic acid] | 43.7 | 60.0 ± 5.6 | 52.2 | 61.3 ± 5.0 | 45.8 | 67.0 ± 7.0 | – | – |
| CCCCCCCCCCCC(=O)O [Dodecanoic acid] | 47.0 | 67.3 ± 4.0 | 43.4 | 66.3 ± 3.1 | 47.6 | 63.8 ± 3.4 | – | Eggs per assay [1, 8]: 66.5 ± 4.2; Treatment, % (eggs in treatment cup) [1, 8]: 52.2%; Eggs per assay [1, 9]: 64.4 ± 2.9; Treatment, % (eggs in treatment cup) [1, 9]: 45.8%; Eggs per assay [1, 10]: 60.2 ± 2.8; Treatment, % (eggs in treatment cup) [1, 10]: 42.2% |
| CCCCCCCCCCCCCCCC(=O)OC [Hexadecanoic acid, methyl ester] | 34.7 | 51.0 ± 3.5 | 59.1 | 51.3 ± 3.0 | 60.4 | 58.6 ± 3.8 | – | – |
| CCCCCCCCCCCCCCCC(=O)O [Hexadecanoic acid] | 53.4 | 63.7 ± 4.2 | 43.2 | 63.5 ± 4.9 | 38.2 | 71.8 ± 4.8 | – | – |
| CCCCCCCCC(=O)O [Nonanoic acid] | 38.6 | 70.9 ± 4.0 | 58.3 | 74.3 ± 6.1 | 69.1 | 80.0 ± 3.3 | highly effective at inducing egg laying | – |
| CCCCCCCCCCCCCCCCCC(=O)O [Octadecanoic acid] | 55.1 | 71.3 ± 3.3 | 46.4 | 69.0 ± 3.6 | 58.4 | 64.8 ± 4.8 | – | – |
| CCCCCCCCCCCCCC(=O)OC [Tetradecanoic acid, methyl ester] | 55.0 | 68.3 ± 5.4 | 70.2 | 64.0 ± 7.1 | 51.0 | 70.6 ± 6.0 | highly effective at inducing egg laying | – |
| CCCCCCCCCCCCCC(=O)O [Tetradecanoic acid] | 45.4 | 79.6 ± 2.7 | 81.0 | 87.7 ± 5.1 | 62.1 | 80.2 ± 5.2 | highly effective at inducing egg laying | eggs per female in 24 h [1, 11]: 43.4±3.9; diversion of oviposition to treated water ([1]; 10 ng, single female, 72 h): diverted the greatest amount of oviposition to the treated water; Eggs per assay [1, 12]: 318.5 ± 14.4; Treatment, % (eggs in treatment cup) [1, 12]: 52.3%; Eggs per assay [1, 13]: 232.1 ± 22.3; Treatment, % (eggs in treatment cup) [1, 13]: 57.8%; Eggs per assay [1, 14]: 216.8 ± 19.4; Treatment, % (eggs in treatment cup) [1, 14]: 76.9%; Treatment, % (eggs in treatment cup) ([1]; dose 10 ng, five females per assay, 24-h): 57.9%; Treatment, % (eggs in treatment cup) ([1]; dose 100 ng, five females per assay, 24-h): 38.7%; oviposition stimulation [2, 11]: highly stimulatory; Eggs per assay ([2]; dose 10 ng): 196.4 ± 23.2; Eggs per assay ([2]; dose 100 ng): 260.4 ± 30.9 |
